According to patent publication US10047076B2, “Halogen-substituted compounds” (BAYER CROPSCIENCE AKTIENGESELLSCHAFT, priority 2014, dated 2018):

How the values were obtained:
[1] = log P determination by HPLC on reversed-phase column (C18), EEC Directive 79/831 Annex V.A8, acidic (formic acid); assay type: physicochemical; conditions: HPLC method a), acetonitrile/water with formic acid
Description: ^1 The stated mass is the peak of the isotope pattern of the [M+H]^+ ion of the highest intensity; if the [M-H]^- ion was detected, the stated mass is identified with ^2. ^2 The stated mass is the peak of the isotope pattern of the [M-H]^- ion of the highest intensity. ^a) Note regarding the determination of the log P values and mass detection: The determination of the given log P values was carried out in accordance with EEC Directive 79/831 Annex V.A8 by HPLC (High Performance Liquid Chromatography) on a reversed-phase column (C18). […] Mass detection is effected by means of an […] system. ^b) Note regarding the determination of the retention time and mass detection: The stated retention times were determined on a reversed-phase column (C18) Shimadzu LCMS 2020; 50*3.0 Shimadzu shim-pack XR-ODS 2.2 micron; mobile phase A: water (0.05% TFA); mobile phase B: acetonitrile; linear gradient from 5% acetonitrile to 95% acetonitrile in 6.00 min, then 95% acetonitrile for a further 1.1 min; oven temperature 40° C.; flow rate: 1.0 ml/min. ^c) Note regarding the determination of the retention time and mass detection: Instrument: Waters ACQUITY SQD UPLC system; column. Waters Acquity UPLC HSS T3 1.8μ 50×1 mm; mobile phase A: 1 l of water+0.25 ml of 99% strength formic acid, mobile phase B: 1 l of acetonitrile+0.25 ml of 99% strength formic acid; gradient: 0.0 min 90% A→1.2 min 5% A→2.0 min 5% A oven: 50° C.; flow rate: 0.40 ml/min; UV detection: 208-400 nm. ^d) Note regarding the determination of the retention time and mass detection: […] The determination of the given log P values was carried out in accordance with EEC Directive 79/831 Annex V.A8 by HPLC (High Performance Liquid Chromatography) on a reversed-phase column (C18). […] Mass detection is effected by means of an […] system.

Ctenocephalides felis [2] = test: Ctenocephalides felis in vitro contact test with adult cat fleas; assay type: in vivo; conditions: application rate 5 μg/cm^2 (500 g/ha), after 48 h, adult cat fleas dead or moribund
Description: (§1) For the coating of the test tubes, 9 mg of active compound are first dissolved in 1 ml of acetone p.a. and then diluted to the desired concentration with acetone p.a. 250 μl of the solution are distributed homogeneously on the inner walls and the base of a 25 ml test tube by turning and rocking on an orbital shaker (rocking rotation at 30 rpm for 2 h). With 900 ppm active compound solution and internal surface 44.7 cm^2, given homogeneous distribution, an area-based dose of 5 μg/cm^2 is achieved.
After the solvent has evaporated off, the tubes are populated with 5-10 adult cat fleas (Ctenocephalides felis), sealed with a perforated plastic lid and incubated in a horizontal position at room temperature and ambient humidity. After 48 h, efficacy is determined. To this end, the test tubes are stood upright and the fleas are knocked to the base of the tube. Fleas which remain motionless at the base or move in an uncoordinated manner are considered to be dead or moribund.
100% efficacy means that all the fleas were dead or moribund. 0% efficacy means that no fleas were harmed.

Rhipicephalus sanguineus = Rhipicephalus sanguineus in vitro contact test with adult brown dog ticks; assay type: in vivo; conditions: application rate 5 μg/cm^2 (500 g/ha), after 48 h, adult ticks dead or moribund
Description: as §1
After the solvent has evaporated off, the tubes are populated with 5-10 adult dog ticks (Rhipicephalus sanguineus), sealed with a perforated plastic lid and incubated in a horizontal position in the dark at room temperature and ambient humidity. After 48 h, efficacy is determined. To this end, the ticks are knocked to the floor of the tube and incubated on a hotplate at 45-50° C. for not more than 5 min. Ticks which remain motionless on the floor or move in such an uncoordinated manner that they are unable to deliberately avoid the heat by climbing upwards are considered to be dead or moribund.
An efficacy of 100% means that all the ticks were dead or moribund. 0% efficacy means that none of the ticks had been harmed.

Amblyomma hebraeum = test: Amblyomma hebaraeum test (AMBYHE), tick nymphs immersion; assay type: in vivo; conditions: 100 ppm, after 42 days
Description: (§2) Solvent: dimethyl sulphoxide
To produce a suitable active compound formulation, 10 mg of active compound are mixed with 0.5 ml of dimethyl sulphoxide, and the concentrate is diluted with water to the desired concentration.
Tick nymphs (Amblyomma hebraeum) are placed into perforated plastic beakers and immersed in the desired concentration for one minute. The ticks are transferred on filter paper into a Petri dish and stored in a climate-controlled cabinet.

[3] = test system: cattle ticks (Boophilus microplus) Parkhurst strain, SP-resistant; test: Boophilus microplus dip test; assay type: in vivo; conditions: 100 ppm, engorged adult female ticks, after 7 days
Description: Test animals: cattle ticks (Boophilus microplus) Parkhurst strain, SP-resistant
as §2
10 mg of active compound are dissolved in 0.5 ml of dimethyl sulphoxide. For the purpose of producing a suitable formulation, the active compound solution is diluted with water to the concentration desired in each case.
This active compound preparation is pipetted into tubes. 8-10 engorged adult female cattle ticks (Boophilus microplus) are transferred into a further tube with holes. The tube is immersed into the active compound preparation, and all the ticks are completely wetted. After the liquid has run out, the ticks are transferred on filter discs into plastic dishes and stored in a climate-controlled room.
(§3) Efficacy is assessed after 7 days by laying of fertile eggs. Eggs which are not visibly fertile are stored in a climate-controlled cabinet until the larvae hatch after about 42 days. An efficacy of 100% means that none of the ticks has laid any fertile eggs; 0% means that all the eggs are fertile.

Boophilus microplus = Boophilus microplus injection test; assay type: in vivo; conditions: 20 μg/animal, engorged adult female ticks, after 7 days
Description: as §2
1 μl of the active compound solution is injected into the abdomen of 5 engorged adult female cattle ticks (Boophilus microplus). The animals are transferred into dishes and kept in a climate-controlled room.
as §3

Ctenocephalides felis [4] = test: Ctenocephalides felis oral test; assay type: in vivo; conditions: 100 ppm in citrated cattle blood, after 2 days
Text: as §2
Dilution with citrated cattle blood gives the desired concentration.
About 20 unfed adult cat fleas (Ctenocephalides felis) are placed into a chamber which is closed at the top and bottom with gauze. A metal cylinder whose bottom end is closed with parafilm is placed onto the chamber. The cylinder contains the blood/active compound preparation, which can be imbibed by the fleas through the parafilm membrane.

Lucilia cuprina = Lucilia cuprina test; assay type: in vivo; conditions: 100 ppm, L1 larvae, after 2 days
Description: as §2
About 20 L1 larvae of the Australian sheep blowfly (Lucilia cuprina) are transferred into a test vessel containing minced horsemeat and the active compound preparation of the desired concentration.
After 2 days, the kill in % is determined.

Musca domestica = Musca domestica test; assay type: in vivo; conditions: 100 ppm, adult houseflies, after 2 days
Text: as §2
Vessels containing a sponge treated with sugar solution and the active compound preparation of the desired concentration are populated with 10 adult houseflies (Musca domestica).

Spodoptera frugiperda = Spodoptera frugiperda spray test; assay type: in vivo; conditions: 100 g/ha, caterpillars on maize leaf discs, after 7 days
Text: (§4) Solvent: 78.0 parts by weight of acetone

Tetranychus urticae [5] = test: Tetranychus urticae spray test, OP-resistant (bean plants); assay type: in vivo; conditions: 20 ppm, after 7 days
Phaedon cochleariae = Phaedon cochleariae spray test; conditions: 100 g/ha, larvae on Chinese cabbage leaf discs, after 7 days
Tetranychus urticae [6] = test: Tetranychus urticae spray test, OP-resistant (bean leaf discs); assay type: in vivo; conditions: 100 g/ha, after 6 days
Description: as §4
(§5) After 6 days, the efficacy in % is determined.

Myzus persicae = Myzus persicae spray test; assay type: in vivo; conditions: 100 g/ha, Chinese cabbage leaf discs, after 6 days
Description: Solvent: 78 parts by weight of acetone
as §5

SMILES	chromatographic logP [1]	efficacy (Ctenocephalides felis [2])	efficacy (Rhipicephalus sanguineus)	efficacy (kill in %) (Amblyomma hebraeum)	efficacy (laying of fertile eggs) [3]	efficacy (laying of fertile eggs) (Boophilus microplus)	efficacy (kill in %) (Ctenocephalides felis [4])	efficacy (kill in %) (Lucilia cuprina)	efficacy (kill in %) (Musca domestica)	efficacy (Spodoptera frugiperda)	efficacy (Tetranychus urticae [5])	efficacy (Phaedon cochleariae)	logP [1]	efficacy (Tetranychus urticae [6])	efficacy (Myzus persicae)
Cn1nc(C(F)(F)C(F)(F)F)c(C(F)(F)F)c1-c1cc(-c2ccc(Cl)c(C(=O)NC3CC3)c2)no1 [Iap-1, 2-chloro-N-cyclopropyl-5-{5-[1-methyl-3-(pentafluoroethyl)-4-(trifluoromethyl)-1H-pyrazol-5-yl]-1,2-oxazol-3-yl}benzamide]	4.06	100%	100%	100%	100%	100%	100%	100%	100%	100%	100%	100%	–	–	–
Cn1nc(C(F)(F)C(F)(F)F)c(C(F)(F)F)c1-c1cc(-c2ccc(Cl)c(C(=O)NC3(C#N)CC3)c2)no1 [Iap-3]	–	100%	100%	–	–	100%	100%	100%	100%	100%	–	100%	3.96	100%	–
Cn1nc(C(F)(F)C(F)(F)F)c(C(F)(F)F)c1-c1coc(-c2ccc(Cl)c(C(=O)NC3CC3)c2)c1 [Iac-3]	–	–	–	100%	100%	100%	100%	100%	100%	100%	–	100%	4.08	100%	–
Cn1nc(C(F)(F)C(F)(F)F)c(C(F)(F)F)c1-c1csc(-c2ccc(Cl)c(C(=O)NC3CC3)c2)c1 [Iaf-1]	–	100%	100%	100%	100%	100%	100%	100%	–	100%	–	100%	4.31	100%	90%
Cn1nc(C(F)(F)C(F)(F)F)c(C(F)(F)F)c1-c1coc(-c2ccc(Cl)c(C(=O)NC3(C#N)CC3)c2)c1 [Iac-1, 2-chloro-N-(1-cyanocyclopropyl)-5-{4-[1-methyl-3-(pentafluoroethyl)-4-(trifluoromethyl)-1H-pyrazol-5-yl]-2-furyl}benzamide]	4.02	100%	–	100%	100%	100%	100%	100%	100%	100%	–	100%	–	100%	–
